Reference: patent US7803822B2, “Triazole derivative and use thereof” (Takeda Pharmaceutical Company Limited, priority 2005, dated 2010)

Assays:
human PAR-1 = target: T1, human PAR-1 (Homo sapiens, UniProt P25116); assay: Evaluation of PAR-1 antagonistic action by intracellular calcium concentration variation assay (FLIPR); format: cell-based; conditions: human PAR-1-expressing CHO cells, agonist peptide SFLLRN-NH2 final concentration 0.3 nM, Fluo-3AM
T1 construct: expressed in transfected cells; host or cells: CHO-K1 (transformant flag/trn/CHO-K1)
T1 sequence (P25116 22-425): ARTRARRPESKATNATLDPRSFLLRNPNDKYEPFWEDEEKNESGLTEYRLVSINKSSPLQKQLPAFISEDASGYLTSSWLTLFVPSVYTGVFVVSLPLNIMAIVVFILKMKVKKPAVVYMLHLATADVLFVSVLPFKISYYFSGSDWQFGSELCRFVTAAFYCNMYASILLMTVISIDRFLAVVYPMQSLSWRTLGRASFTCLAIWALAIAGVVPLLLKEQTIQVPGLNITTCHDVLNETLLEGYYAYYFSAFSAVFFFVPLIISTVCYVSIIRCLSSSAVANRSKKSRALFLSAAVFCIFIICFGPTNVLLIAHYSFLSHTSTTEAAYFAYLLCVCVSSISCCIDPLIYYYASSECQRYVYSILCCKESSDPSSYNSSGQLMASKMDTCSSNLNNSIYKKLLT
Description: Evaluation of PAR-1 Antagonistic Action of Compound by Intracellular Calcium Concentration Variation Assay
Human PAR-1-expressing cells was plated at 3×10^4 cells/well on a 96 well clear bottom plate (Corning 3904 type) and cultured for 16-24 hr. The medium was removed from the wells of the plate, measurement buffer (50 μL, 115 mM NaCl, 5.4 mM KCl, 1.8 mM CaCl2, 0.8 mM MgCl2, 13.8 mM D-glucose, 0.1% BSA, 20 mM HEPES, pH 7.4) containing 2.5 μg/mL of Fluo-3AM (manufactured by Dojindo Laboratories), 0.08% Pluronic F-127 and 2.5 mM Probenecid was added to the cells and the mixture was reacted at 37° C. for 1 hr. The cells were washed twice with the measurement buffer. After addition of the measurement buffer (100 μL), a measurement buffer (50 μL) containing a test compound was added, and the mixture was stood still for 10 min. The plate was moved to a fluorometry image-plate reader (FLIPR-1, manufactured by Molecular Devices). […] The intracellular calcium concentration was measured by FLIPR.

melting point | IC50 (human PAR-1) | SMILES
164 °C |  | CCNC(=O)c1ccc(-n2nnc(C(=O)NC3CC3)c2CN2CCCC2)cc1 [Example 127, N-cyclopropyl-1-{4-[(ethylamino)carbonyl]phenyl}-5-(pyrrolidin-1-ylmethyl)-1H-1,2,3-triazole-4-carboxamide]
 | 1.7 µM | CCNC(=O)c1ccc(-n2nnc(C(=O)NC3CC3)c2COCc2ccccc2)cc1 [Example 94, 5-[(benzyloxy)methyl]-N-cyclopropyl-1-{4-[(ethylamino)carbonyl]phenyl}-1H-1,2,3-triazole-4-carboxamide]
 | 3.4 µM | CCNC(=O)c1ccc(-n2nnc(C(=O)NC3CC3)c2CCCF)cc1 [Example 109, N-cyclopropyl-1-{4-[(ethylamino)carbonyl]phenyl}-5-(3-fluoropropyl)-1H-1,2,3-triazole-4-carboxamide]
 | 0.52 µM | CCCc1c(C(=O)NC2CC2)nnn1-c1ccc(NC(=O)C(C)C)cc1 [Example 3, N-cyclopropyl-1-[4-(isobutyrylamino)phenyl]-5-propyl-1H-1,2,3-triazole-4-carboxamide]
162 °C |  | C=Cc1c(C(=O)NC2CC2)nnn1-c1ccc(C(=O)NCC)cc1 [Example 115, N-cyclopropyl-1-{4-[(ethylamino)carbonyl]phenyl}-5-vinyl-1H-1,2,3-triazole-4-carboxamide]
 | 0.95 µM | CCCc1c(C(=O)NC2CC2)nnn1-c1ccc(C(=O)NCC(F)(F)F)cc1 [Example 46, N-cyclopropyl-5-propyl-1-(4-{[(2,2,2-trifluoroethyl)amino]carbonyl}phenyl)-1H-1,2,3-triazole-4-carboxamide]
 | 1.5 µM | CCCc1c(C(=O)NC2CC2)nnn1-c1ccc(C(=O)NCC)cc1 [Example 43, N-cyclopropyl-1-{4-[(ethylamino)carbonyl]phenyl}-5-propyl-1H-1,2,3-triazole-4-carboxamide]
150.3 °C | 1.6 µM | CCNC(=O)c1ccc(-n2nnc(C(=O)NC3CC3)c2CCCCCF)cc1 [Example 111, N-cyclopropyl-1-{4-[(ethylamino)carbonyl]phenyl}-5-(5-fluoropentyl)-1H-1,2,3-triazole-4-carboxamide]
 | 0.4 µM | CCNC(=O)c1ccc(-n2nnc(C(=O)NC3CC3)c2/C=C/c2ccccc2)cc1 [Example 106, N-cyclopropyl-1-{4-[(ethylamino)carbonyl]phenyl}-5-[(E)-2-phenylvinyl]-1H-1,2,3-triazole-4-carboxamide]
 | 0.25 µM | CCCc1c(C(=O)NC2CC2)nnn1-c1ccc(NC(=O)C(F)(F)F)cc1 [Example 16, N-cyclopropyl-5-propyl-1-{4-[(trifluoroacetyl)amino]phenyl}-1H-1,2,3-triazole-4-carboxamide]
 | 0.33 µM | CCNC(=O)c1ccc(-n2nnc(C(=O)NC3CC3)c2CCCOc2ccc(OC(F)(F)F)cc2)cc1 [Example 522, N-cyclopropyl-1-{4-[(ethylamino)carbonyl]phenyl}-5-{3-[4-(trifluoromethoxy)phenoxy]propyl}-1H-1,2,3-triazole-4-carboxamide]
203 °C |  | CCCc1c(C(=O)NC2CC2)nnn1-c1ccc(C(=O)NCC)cc1O [Example 315, N-cyclopropyl-1-{4-[(ethylamino)carbonyl]-2-hydroxyphenyl}-5-propyl-1H-1,2,3-triazole-4-carboxamide]
 | 0.62 µM | CCCc1c(C(=O)NCc2ccc3c(c2)OCO3)nnn1-c1ccc(C(=O)NCC)cc1 [Example 86, N-(1,3-benzodioxol-5-ylmethyl)-1-{4-[(ethylamino)carbonyl]phenyl}-5-propyl-1H-1,2,3-triazole-4-carboxamide]
234 °C (dec.) |  | CCNC(=O)c1ccc(-n2nnc(C(=O)NC3CC3)c2CN2CCOCC2)cc1 [Example 128, N-cyclopropyl-1-{4-[(ethylamino)carbonyl]phenyl}-5-(morpholin-4-ylmethyl)-1H-1,2,3-triazole-4-carboxamide]
132 °C |  | CCNC(=O)c1ccc(-n2nnc(C(=O)NC3CC3)c2COCc2ccccc2)c(OCc2ccccc2)c1 [Example 316, 1-{2-(benzyloxy)-4-[(ethylamino)carbonyl]phenyl}-5-[(benzyloxy)methyl]-N-cyclopropyl-1H-1,2,3-triazole-4-carboxamide]
 | 1.3 µM | CCNC(=O)c1ccc(-n2nnc(C(=O)NC3CC3)c2Cc2ccccc2)cc1 [Example 99, 5-benzyl-N-cyclopropyl-1-{4-[(ethylamino)carbonyl]phenyl}-1H-1,2,3-triazole-4-carboxamide]

The remaining lines, values behind:

SMILES | melting point | IC50 (human PAR-1)
CCNC(=O)c1ccc(-n2nnc(C(=O)NC3CC3)c2CC2CC2)cc1 [Example 96, N-cyclopropyl-5-(cyclopropylmethyl)-1-{4-[(ethylamino)carbonyl]phenyl}-1H-1,2,3-triazole-4-carboxamide] |  | 1.2 µM
CCCc1c(C(=O)NC2CC2)nnn1-c1ccc(C(=O)NCC)cc1Cl [Example 72, 1-{2-chloro-4-[(ethylamino)carbonyl]phenyl}-N-cyclopropyl-5-propyl-1H-1,2,3-triazole-4-carboxamide] |  | 3.4 µM
CCNC(=O)c1ccc(-n2nnc(C(=O)NC3CC3)c2CO)c(O)c1 [Example 317, N-cyclopropyl-1-{4-[(ethylamino)carbonyl]-2-hydroxyphenyl}-5-(hydroxymethyl)-1H-1,2,3-triazole-4-carboxamide] | 185 °C | 
CCCc1c(C(=O)NC2CC2)nnn1-c1ccc(NC(=O)COC)cc1 [Example 19, N-cyclopropyl-1-{4-[(methoxyacetyl)amino]phenyl}-5-propyl-1H-1,2,3-triazole-4-carboxamide] |  | 0.75 µM
CCNC(=O)c1ccc(-n2nnc(C(=O)NC3CC3)c2CCO)cc1 [Example 114, N-cyclopropyl-1-{4-[(ethylamino)carbonyl]phenyl}-5-(2-hydroxyethyl)-1H-1,2,3-triazole-4-carboxamide] | 156 °C | 
CCNC(=O)c1ccc(-n2nnc(C(=O)NC3CC3)c2COc2ccc(OC)cc2)cc1 [Example 122, N-cyclopropyl-1-{4-[(ethylamino)carbonyl]phenyl}-5-[(4-methoxyphenoxy)methyl]-1H-1,2,3-triazole-4-carboxamide] |  | 3.3 µM
CCCc1c(C(=O)NC2CC2)nnn1-c1ccc(C(=O)NC2CC2)cc1 [Example 53, N-cyclopropyl-1-{4-[(cyclopropylamino)carbonyl]phenyl}-5-propyl-1H-1,2,3-triazole-4-carboxamide] |  | 3.4 µM
CCNC(=O)c1ccc(-n2nnc(C(=O)NC3CC3)c2CCC(C)C)cc1 [Example 97, N-cyclopropyl-1-{4-[(ethylamino)carbonyl]phenyl}-5-(3-methylbutyl)-1H-1,2,3-triazole-4-carboxamide] |  | 1.6 µM
CCNC(=O)c1ccc(-n2nnc(C(=O)NC3CC3)c2-c2ccccc2)cc1 [Example 105, N-cyclopropyl-1-{4-[(ethylamino)carbonyl]phenyl}-5-phenyl-1H-1,2,3-triazole-4-carboxamide] |  | 2.7 µM
CCNC(=O)c1ccc(-n2nnc(C(=O)NC3CC3)c2CCCO)cc1 [Example 113, N-cyclopropyl-1-{4-[(ethylamino)carbonyl]phenyl}-5-(3-hydroxypropyl)-1H-1,2,3-triazole-4-carboxamide] |  | 3.1 µM
CCNC(=O)c1ccc(-n2nnc(C(=O)NC3CC3)c2CNCc2ccccc2)cc1 [Example 126, 5-[(benzylamino)methyl]-N-cyclopropyl-1-{4-[(ethylamino)carbonyl]phenyl}-1H-1,2,3-triazole-4-carboxamide] | 153 °C | 
CCCc1c(C(=O)NC2CC2)nnn1-c1ccc(C(=O)NCC(C)C)cc1 [Example 52, N-cyclopropyl-1-{4-[(isobutylamino)carbonyl]phenyl}-5-propyl-1H-1,2,3-triazole-4-carboxamide] |  | 1.4 µM
CCNC(=O)c1ccc(-n2nnc(C(=O)NC3CC3)c2CC2CCCCC2)cc1 [Example 102, 5-(cyclohexylmethyl)-N-cyclopropyl-1-{4-[(ethylamino)carbonyl]phenyl}-1H-1,2,3-triazole-4-carboxamide] |  | 1.8 µM
CCCCc1c(C(=O)NC2CC2)nnn1-c1ccc(C(=O)NCC)cc1 [Example 90, 5-butyl-N-cyclopropyl-1-{4-[(ethylamino)carbonyl]phenyl}-1H-1,2,3-triazole-4-carboxamide] |  | 2.4 µM
CCNC(=O)c1ccc(-n2nnc(C(=O)NC3CC3)c2CCCOCc2ccccc2)cc1 [Example 91, 5-[3-(benzyloxy)propyl]-N-cyclopropyl-1-{4-[(ethylamino)carbonyl]phenyl}-1H-1,2,3-triazole-4-carboxamide] |  | 2.2 µM
CCCc1c(C(=O)NCc2ccccn2)nnn1-c1ccc(C(=O)NCC)cc1 [Example 84, 1-{4-[(ethylamino)carbonyl]phenyl}-5-propyl-N-(pyridin-2-ylmethyl)-1H-1,2,3-triazole-4-carboxamide] |  | 1.3 µM
